This is an account of results in patent US20060173162A1, “Bactericidak anti-apoptotic, pro-inflammatory and anti-inflammatory peptides of heparin-binding protein (hbp)” (priority 2002, published 2006).

Holding throughout (assay type): cell-based
Test [1] relates to monocytes in WB. The test can be described thus: IL-6 secretion in citrated human whole blood (screening for inflammatory and anti-inflammatory potential). The following applies: 250 μg/ml PGN from S. aureus.
In test [2] the test system is monocytes in WB. Described as above. The following applies: for LPS induced IL-6 production, variant compared to the unsubstituted peptide: in the presence of LPS, FIG. 7; for PGN induced IL-6 production, variant compared to the unsubstituted peptide: FIG. 8; for effect on LPS induced IL-6 secretion: 100 ng/ml LPS, FIG. 2; for effect on PCW induced IL-6 secretion: PCW 50 μg/ml from Staphylococcus aureus, FIG. 4; for IL-6 secretion in the absence of bacterial components: no bacterial component, peptide 0.09, 0.18, 0.36 and 0.71 mg/ml blood, FIG. 1. The text has this:
Human whole blood (WB) contains besides red cells, platelets and plasma the white blood cells including the neutrophils and monocytes. Neutrophils and monocytes have receptors for bacterial products such as LPS, PGN and LTA. The bacterial products react directly or via specific binding proteins to receptors on the monocytes thereby stimulating them to secrete and release inflammatory cytokines comprising, but not limited to IL-1, IL-6, and TNF-α.
In the example to be described LPS from the E. coli is used to stimulate the monocytes in WB (anti-coagulated by use of citrate) and the activity is measured by subsequently quantifying IL-6 in plasma separated from WB. The activity of HBP, HBP derived peptides and analogues hereof are evaluated by their ability to: • 1. increase IL-6 secretion in absence of bacterial products • 2. increase IL-6 secretion in presence of bacterial products • 3. decrease IL-6 secretion in presence of bacterial products • 4. inhibit amplification of cytokine secretion induced by intact HBP
All operations must be carried out in LAF cabinet by observance of stringent aseptic techniques. All test tubes, pipette tips etc. must be pyrogen-free. Buffers must be prepared by use of sterile, […], preferably water for injection. Use 0.1% pyrogen-free BSA/PBS for all dilutions.
Add 20 μl of HBP derived peptide (in concentrations from 25 to 2500 μM) to 100 μl freshly drawn (less than 4 hours old) citrate whole blood from a healthy human volunteer. Add 20 μl bacterial component (LPS, LTA or PGN) in concentrations from 5 to 5000 ng/ml, preferably 50 to 500 ng/ml. Mix well and incubate for 16-18 hours in an atmosphere of 5% carbon dioxide and at least 95% relative humidity. At the end of the incubation add at least 5 volumes (700 μl) 0.1% BSA/PBS. Mix well. Centrifuge 10 min. at 10.000 g. Aspirate 500 μl supernatant. Determine the level of IL-6 by a specific human immune assay for human IL-6 with sensitivity of at least 3 pg/ml, e.g. Human IL-6 Kit from RnD Systems (cat. no. D 6050).
Negative controls: 100 μl WB plus 40 μl 0.1% BSA/PBS. Positive control: 100 μl WB plus 20 μl LPS (same concentration as used for testing the peptide) and 20 μl 0.1% BSA/PBS.
The human (h20-44) and porcine (p20-44) peptides were synthesized and tested in the screening assay described in Example 1. The following parameters were examined: (a) abililty to induce inflammation on their own (i.e. in the absence of any bacterial component), (b) ability to amplify or inhibit inflammation induced by a bacterial component, such as LPS from the Gram negative bacteria E. coli and PGN or Purified Cell Wall (PCW) from a Gram positive bacteria. As measure for immune stimulation secretion of the release of IL-6 in citrated whole blood was used. The peptides were tested in the concentrations 0.09, 0.18, 0.36 and 0.71 mg/ml blood. […]

The test system of test [3] is Human Neutrophils (PMNs). Briefly: Apoptosis of isolated human neutrophils, TUNEL assay with flow cytometry. The following applies: 25 μg HBP per ml sample; 24 h culture; control about 70%. On the procedure:
The screening for anti-apoptotic peptides is carried out essentially as described by Shrotri M S. et al., 2000.
Peripheral blood from normal volunteers was collected and PMNs were separated by density gradient using Ficoll-Hypaque (Sigma Chemical Co.). PMNs obtained were divided into 1-ml samples with […] and were treated and analyzed as per the protocols described below.
Cell pellets were obtained by centrifugation at 300 g and fixed with 1% paraformaldehyde for 15 min at 4° C. Cells were washed twice and permeabilized with 70% ice-cold ethanol and stored at […]. Cells samples were washed twice and stained by the terminal dUTP nick-end labeling (TUNEL) assay using the APO-BRDU kit (Phoenix Flow Systems, San Diego, Calif.), following the manufacturer's instructions. Briefly, in this assay, the enzyme terminal deoxynucleotidyl transferase (TdT) catalyzes the addition of nucleotides to DNA strand breaks in the apoptotic cells, which are subsequently labeled with fluorescein isothiocyanate (FITC)-conjugated antinucleotide antibodies. The fluorescent cells are the apoptotic cells that are then identified or assessed using the flow cytometer (EPICS Elite, Beckman-Coulter, Hialeah, Fla.). These apoptotic cells were also visually confirmed by confocal microscopy (Meridian Instruments Inc., Okemos, Mich.).
Time zero group. […]
(Flow cytometry measures light scatter and fluorescence of single cells or particles in a stream.)

The mark [4] stands for this setting: PGN 50 μg/ml from Staphylococcus aureus, peptide 0.09-0.71 mg/ml blood, FIG. 3.

“hHBP 20-44 acetylated at the N-terminal amino group and amidated at the C-terminal carboxyl group: hHBP 20-44 acetylated at the N-terminal amino group and amidated at the C-terminal carboxyl group (Ac-NQGRHFCGGALIHARFVMTAASCFQ-NH2; cysteine pairing not given here; UniProt P20160 46-70, looked up, fragment)”: in test [1] (FIG. 5 compared to FIG. 2), the “fold stimulation of the PGN mediated IL-6 production” value is on record as “more than ten fold stimulation”. In addition, the “effect on PGN induced IL-6 secretion” value in test [1] (normalized to PGN alone, FIG. 5) was “stimulated the IL-6 secretion in a dose dependant way”.
Consider “pHBP 20-44 acetylated and amidated at the N- and C-terminal amino acids: pHBP 20-44 acetylated and amidated at the N- and C-terminal amino acids, respectively (Ac-KQGRPFCAGALVHPRFVLTAASCFR-NH2; cysteine pairing not given here; UniProt P80015 46-70, looked up, fragment)”, for which the “LPS induced IL-6 production, variant compared to the unsubstituted peptide” value in test [2] was “more inhibitory”. In addition, the “PGN induced IL-6 production, variant compared to the unsubstituted peptide” value in test [2] (in the presence of PGN) is reported as “more inhibitory”.
Regarding “NQGRHFCGGALIHARFVMTAASCFQ [human HBP 20-44]”, in test [2] (100 ng/ml LPS alone plus 0.71 mg/ml peptide alone), the “sum of the IL-6 secretion induced by LPS and peptide individually” value was 14,178 pg/ml. The “IL-6 secretion, peptide and LPS together” value in test [2] (100 ng/ml LPS plus 0.71 mg/ml peptide) is 12,130 pg/ml. Moreover, the “effect on LPS induced IL-6 secretion” value is listed as “increased IL-6 secretion significantly” in test [2] (0.71 mg/ml peptide) and “did not significantly increase” in test [2] (up to 0.36 mg/ml peptide). In addition, the “effect on PCW induced IL-6 secretion” value in test [2] (peptide 0.09-0.71 mg/ml blood) is “increased IL-6 secretion in dose-dependent way”. In test [2] (setting [4]), the “effect on PGN induced IL-6 secretion” value is given as “increased IL-6 secretion in dose-dependent way”. The “IL-6 secretion in the absence of bacterial components” value in test [2] is “significant and dose-dependent increase”.
For the molecule “KQGRPFCAGALVHPRFVLTAASCFQ (Peptide fragment amino acid residues 20-44 of pHBP with mutation R44Q) [pHBP 20-44 with C-terminal amino acid residue replaced with the human C-terminal residue]”, the “LPS induced IL-6 production, variant compared to the unsubstituted peptide” value in test [2] is “the same pattern was observed”. Besides, the “PGN induced IL-6 production, variant compared to the unsubstituted peptide” value in test [2] (in the presence of PGN) is on record as “the same pattern was observed”.
Regarding “KQGRPFCAGALVHPRFVLTAASCFR (Peptide fragment amino acid residues 20-44 of pHBP) [porcine HBP 20-44]”, in test [2] (peptide 0.09-0.71 mg/ml blood), the “effect on LPS induced IL-6 secretion” value was “significantly and dose-dependently inhibited”; the “effect on PCW induced IL-6 secretion” value is “significantly and dose-dependently inhibited”. In test [2] (setting [4]), the “effect on PGN induced IL-6 secretion” value was “significantly and dose-dependently inhibited”. In test [2], the “IL-6 secretion in the absence of bacterial components” value is “no significant or dose-dependent effect”.
As to “KQGRPFCAGALVHPQFVLTAASCFR (Peptide fragment amino acid residues 20-44 of pHBP with mutation R34Q) [R34Q pHBP 20-44, substitution of arginine to glutamine in position 34 of pHBP 20-44]”, the “effect on PGN induced IL-6 secretion” value in test [2] (in the presence of PGN, FIG. 6) is given as “completely abolished the inhibitory effect”.
As for “NQGRPFCAGALVHPRFVLTAASCFR (Peptide fragment amino acid residues 20-44 of pHBP with mutation K20N) [pHBP 20-44 whose N-terminal amino acid residue was substituted with the human N-terminal residue]”, the “LPS induced IL-6 production, variant compared to the unsubstituted peptide” value in test [2] was “less inhibitory”. In test [2] (in the presence of PGN), the “PGN induced IL-6 production, variant compared to the unsubstituted peptide” value is on record as “less inhibitory”.
As to “KQGRHFCGGALIHARFVMTAASCFR (Peptide fragment amino acid residues 20-44 of hHBP with mutations N20K,Q44R) [hHBP 20-44 with both N- and C-terminal residues substituted with the corresponding porcine residues]”, the “LPS induced IL-6 production, variant compared to the unsubstituted peptide” value in test [2] is “nearly non-stimulating”. Besides, the “PGN induced IL-6 production, variant compared to the unsubstituted peptide” value in test [2] (in the presence of PGN) is recorded as “inhibitory”.

B1: HBP: heparin-binding protein (HBP), isolated from azurophile granules of human PMNs; also termed CAP37, azurocidin (protein, listed as Homo sapiens)
chain: IVGGRKARPRQFPFLASIQNQGRHFCGGALIHARFVMTAASCFQSQNPGVSTVVLGAYDLRRRERQSRQTFSISSMSENGYDPQQNLNDLMLLQLDREANLTSSVTILPLPLQNATVEAGTRCQVAGWGSQRSGGRLSRFPRFVNVTVTPEDQCRPNNVCTGVLTRRGGICNGDGGTPLVCEGLAHGVASFSLGPCGRGPDFFTRVALFRDWIDGVLNNPGPGPA
As to B1, the “amplification of cytokine secretion induced by bacterial products” value in test [2] is “at least three-fold amplification”. In addition, the “cytokine secretion by HBP in itself” value in test [2] (no bacterial product) is recorded as “no measurable effect”. Besides, the apoptosis in test [3] is roughly 45%.
